According to patent US6903099B2, “Condensed pyrazindione derivatives” (Lilly Icos LLC, priority 2000, dated 2005):

How the values were obtained:
recombinant human PDE5 = target: T1, recombinant human PDE5 (Homo sapiens, UniProt O76074); experiment: Inhibitory effect on cGMP-PDE (PDE5 IC50 determination); type: biochemical; conditions: in vitro, read-out: IC50 versus PDE5
T1 construct: host or cells: Saccharomyces cerevisiae strain BJ2-54 (ATCC 74465)
Description: The compounds of structural formula (I) were tested for an ability to inhibit PDE5. The ability of a compound to inhibit PDE5 activity is related to the IC50 value for the compound, i.e., the concentration of inhibitor required for 50% inhibition of enzyme activity. The IC50 value for compounds of structural formula (I) were determined using recombinant human PDE5.
Phosphodiesterase activity of the preparations was determined as follows. PDE assays utilizing a charcoal separation technique were performed essentially as described in Loughney et al. (1996). In this assay, PDE activity converts [32P]cAMP or [32P]cGMP to the corresponding [32P]5′-AMP or [32P]5′-GMP in proportion to the amount of PDE activity present. The [32P]5′-AMP or [32P]5′-GMP then was quantitatively converted to free [32P]phosphate and unlabeled adenosine or guanosine by the action of snake venom 5′-nucleotidase. […] The assay was performed at 30° C. in a 100 μL reaction mixture containing (final concentrations) 40 mM Tris HCl (pH 8.0), 1 μM ZnSO4, 5 mM MgCl2, and 0.1 mg/mL bovine serum albumin (BSA). PDE enzyme was present in quantities that yield <30% total hydrolysis of substrate (linear assay conditions). The assay was initiated by addition of substrate ([…] [32P]cAMP or cGMP), and the mixture was incubated for 12 minutes. Seventy-five (75) μg of Crotalus atrox venom then was added, and the incubation was continued for 3 minutes (15 minutes total). The reaction was stopped by addition of 200 μL of activated charcoal (25 mg/mL suspension in 0.1 M NaH2PO4, pH 4). After centrifugation (750×g for 3 minutes) to sediment the charcoal, a sample of the supernatant was taken for radioactivity determination in a scintillation counter and the PDE activity was calculated.
cGMP-PDE activity of compounds of the present invention was measured using a one-step assay adapted from Wells et al., Biochim. Biophys. Acta, 384, 430 (1975). The reaction medium contained 50 mM Tris-HCl, pH 7.5, 5 mM magnesium acetate, 250 μg/ml 5′-Nucleotidase, 1 mM EGTA, and 0.15 μM 8-[H^3]-cGMP. Unless otherwise indicated, the enzyme used was a human recombinant PDE5 (ICOS Corp., Bothell, Wash.).
Compounds of the invention were dissolved in DMSO finally present at 2% in the assay.

**Q.** With `CN1CC(=O)N2[C@H](c3ccc4c(c3)OCO4)c3[nH]c4ncccc4c3C[C@@H]2C1=O` (racemic) [Example 1, (+/−,cis)-10-Benzo[1,3]dioxol-5-yl-7-methyl-5,5a,7,8,10,11-hexahydro-1,7,9a,11-tetraazabeno[β]fluorene-6,9-dione] as the compound, how does the IC50 (recombinant human PDE5) read?
**A.** 2.3 nM

**Q.** And the melting point?
**A.** 262 to 276 °C

**Q.** For `CN1CC(=O)N2[C@H](c3ccc4c(c3)OCO4)c3sc4ccccc4c3C[C@@H]2C1=O` (racemic) [Example 4, (+/−,cis)-10-Benzo[1,3]dioxol-5-yl-7-methyl-5,7,8,10-tetrahydro-5aH-11-thia-7,9a-diazabenzo[β]fluorene-6,9-dione], which IC50 (recombinant human PDE5) is on record?
**A.** 555 nM

**Q.** And the melting point?
**A.** 245 to 266 °C

**Q.** Which IC50 (recombinant human PDE5) does the source give for `CN1CC(=O)N2[C@H](c3ccc4c(c3)OCO4)c3c([nH]c4ccccc34)C[C@@H]2C1=O` [Example 5(a), (5R,9aR)-5-Benzo(1,3)dioxol-5-yl-8-methyl-5,7,8,9a,10,11-hexahydro-5a,8,11-triaza-benzo[b]fluorane-8,9-dione] here?
**A.** 338 nM

**Q.** And the melting point?
**A.** 274 to 277 °C

**Q.** For `CN1CC(=O)N2[C@@H](c3ccc4c(c3)OCO4)c3c([nH]c4ccccc34)C[C@@H]2C1=O` [Example 5(b), (5S,9aR)-5-Benzo[1,3]dioxol-5-yl-8-methyl-5,7,8,9a,10,11-hexahydro-5a,8,11-triaza-benzo[b]fluorene-8,9-dione], which IC50 (recombinant human PDE5) is on record?
**A.** 125 nM

**Q.** What about the melting point of the same compound?
**A.** 274 to 277 °C
